Patent publication US20230406864A1, “7-AZOLE SUBSTITUTED 2-AMINOQUINAZOLINE INHIBITORS OF HPK1” (MERCK SHARP & DOHME LLC, priority 2020, published 2023)

Molecular target: T1, Human HPK1, catalytic domain (Homo sapiens, UniProt Q92918)
T1 construct: purchased Cama (so in the source)
T1 sequence (Q92918 1-346): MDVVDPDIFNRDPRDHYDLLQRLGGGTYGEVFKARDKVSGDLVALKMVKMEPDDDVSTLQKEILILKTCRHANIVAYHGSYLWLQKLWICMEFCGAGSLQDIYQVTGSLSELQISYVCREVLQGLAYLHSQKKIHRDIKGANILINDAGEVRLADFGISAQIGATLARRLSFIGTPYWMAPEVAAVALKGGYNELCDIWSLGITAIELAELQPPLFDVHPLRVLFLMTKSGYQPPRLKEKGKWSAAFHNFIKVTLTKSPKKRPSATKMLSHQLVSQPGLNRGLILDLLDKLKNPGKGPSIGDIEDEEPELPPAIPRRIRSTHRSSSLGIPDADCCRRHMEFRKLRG
Experiment: HPK1-SLP76 TR-FRET assay
Type: biochemical
Details: HPK1 kinase domain 0.075 nM; full length SLP-76 10 nM; ATP 10 μM; 30 min preincubation; 60 min reaction; room temperature

Compound | IC50 [nM]
Cc1c(-c2cc3nc(Nc4cnn(C5CCN(C)C5=O)c4)ncc3c(N)c2F)cnc2c1NCCO2 (single isomer, unassigned) [Example 2-19, (S or R)-3-(4-{[5-amino-6-fluoro-7-(8-methyl-2,3-dihydro-1H-pyrido[2,3-b][1,4]oxazin-7-yl)quinazolin-2-yl]amino}-1H-pyrazol-1-yl)-1-methylpyrrolidin-2-one] | 0.15
Cc1c(-c2cc3nc(Nc4cnn(C5CCN(C)C5=O)c4)ncc3c(N)c2F)cnc2c1NCCO2 (single isomer, unassigned) [Example 2-21, (S or R)-3-(4-{[5-amino-6-fluoro-7-(8-methyl-2,3-dihydro-1H-pyrido[2,3-b][1,4]oxazin-7-yl)quinazolin-2-yl]amino}-1H-pyrazol-1-yl)-1-methylpyrrolidin-2-one] | 0.35
Cc1c(-c2ccc3cnc(Nc4cnn(C5COC5)c4)nc3c2)cnc2c1NCCO2 [Example 1-1, 7-(8-methyl-2,3-dihydro-1H-pyrido[2,3-b][1,4]oxazin-7-yl)-N-[1-(oxetan-3-yl)-1H-pyrazol-4-yl]quinazolin-2-amine] | 1.2
CCC(=O)N1CC(n2cc(Nc3ncc4ccc(-c5cnc6c(c5C)NCCO6)cc4n3)cn2)C1 [Example 1-3, 1-[3-(4-{[7-(8-methyl-2,3-dihydro-1H-pyrido[2,3-b][1,4]oxazin-7-yl)quinazolin-2-yl]amino}-1H-pyrazol-1-yl)azetidin-1-yl]propan-1-one] | 0.26
Cc1c(-c2ccc3cnc(Nc4cc5n(n4)CC(=O)N(C)CC54CC4)nc3c2)cnc2c1NCCO2 [Example 1-4, 6′-methyl-2′-{[7-(8-methyl-2,3-dihydro-1H-pyrido[2,3-b][1,4]oxazin-7-yl)quinazolin-2-yl]amino}-5′,6′-dihydrospiro[cyclopropane-1,4′-pyrazolo[1,5-d][1,4]diazepin]-7′(8′H)-one] | 5.3
Cc1c(-c2ccc3cnc(Nc4cc5n(n4)CCN(CC(C)(C)O)C(=O)C5)nc3c2)cnc2c1NCCO2 [Example 1-8, 6-(2-hydroxy-2-methylpropyl)-2-((7-(8-methyl-2,3-dihydro-1H-pyrido[2,3-b][1,4]oxazin-7-yl)quinazolin-2-yl)amino)-7,8-dihydro-4H-pyrazolo[1,5-d][1,4]diazepin-5(6H)-one] | 0.675
Cc1c(-c2cc3nc(Nc4cnn(C5CC6(C5)CN(C5(C)COC5)C6)c4)ncc3c(N)c2F)cnc2c1NCCO2 [Example 2-2, 6-fluoro-7-(8-methyl-2,3-dihydro-1H-pyrido[2,3-b][1,4]oxazin-7-yl)-N~2~-{1-[2-(3-methyloxetan-3-yl)-2-azaspiro[3.3]heptan-6-yl]-1H-pyrazol-4-yl}quinazoline-2,5-diamine] | 0.14
Cc1c(-c2cc3nc(Nc4cnn(C5CC6(CNC6)C5)c4)ncc3c(N)c2F)cnc2c1NCCO2 [Example 2-4, N~2~-[1-(2-azaspiro[3.3]heptan-6-yl)-1H-pyrazol-4-yl]-6-fluoro-7-(8-methyl-2,3-dihydro-1H-pyrido[2,3-b][1,4]oxazin-7-yl)quinazoline-2,5-diamine] | 0.47
Cc1c(-c2cc3nc(Nc4cnn(C5CNC5)c4)ncc3c(N)c2F)cnc2c1NCCO2 [Example 2-5, N~2~-[1-(azetidin-3-yl)-1H-pyrazol-4-yl]-6-fluoro-7-(8-methyl-2,3-dihydro-1H-pyrido[2,3-b][1,4]oxazin-7-yl)quinazoline-2,5-diamine] | 0.29
Cc1c(-c2cc3nc(Nc4cnn(C5(C)CC5)c4)ncc3c(N)c2F)cnc2c1NCCO2 [Example 2-8, 6-fluoro-N~2~-[1-(1-methylcyclopropyl)-1H-pyrazol-4-yl]-7-(8-methyl-2,3-dihydro-1H-pyrido[2,3-b][1,4]oxazin-7-yl)quinazoline-2,5-diamine] | 0.088
Cc1c(-c2cc3nc(Nc4cnn(C)c4)ncc3c(N)c2F)cnc2c1NCCO2 [Example 2-10, 6-fluoro-7-(8-methyl-2,3-dihydro-1H-pyrido[2,3-b][1,4]oxazin-7-yl)-N~2~-(1-methyl-1H-pyrazol-4-yl)quinazoline-2,5-diamine] | 0.13
Cc1c(-c2cc3nc(Nc4cnn(Cc5ccccc5)c4)ncc3c(N)c2F)cnc2c1NCCO2 [Example 2-12, N~2~-(1-benzyl-1H-pyrazol-4-yl)-6-fluoro-7-(8-methyl-2,3-dihydro-1H-pyrido[2,3-b][1,4]oxazin-7-yl)quinazoline-2,5-diamine] | 2.8
Cc1c(-c2cc3nc(Nc4cnn(C(C)C)c4)ncc3c(N)c2F)cnc2c1NCCO2 [Example 2-14, 6-fluoro-7-(8-methyl-2,3-dihydro-1H-pyrido[2,3-b][1,4]oxazin-7-yl)-N~2~-[1-(propan-2-yl)-1H-pyrazol-4-yl]quinazoline-2,5-diamine] | 0.16
Cc1cc(Nc2ncc3c(N)c(F)c(-c4cnc5c(c4C)NCCO5)cc3n2)sn1 [Example 2-17, 6-fluoro-7-(8-methyl-2,3-dihydro-1H-pyrido[2,3-b][1,4]oxazin-7-yl)-N~2~-(3-methyl-1,2-thiazol-5-yl)quinazoline-2,5-diamine] | 0.38
Cc1c(-c2cc3nc(Nc4cnn(CC(C)(C)O)c4Cl)ncc3c(N)c2F)cnc2c1NCCO2 [Example 2-18, 1-(4-{[5-amino-6-fluoro-7-(8-methyl-2,3-dihydro-1H-pyrido[2,3-b][1,4]oxazin-7-yl)quinazolin-2-yl]amino}-5-chloro-1H-pyrazol-1-yl)-2-methypropan-2-ol] | 2

Second part, the molecule after the results:

IC50 [nM] | Compound
0.22 | Cc1c(-c2ccc3cnc(Nc4cnn(C5CC6(C5)CN(C5(C)COC5)C6)c4)nc3c2)cnc2c1NCCO2 [Example 1-2, 7-(8-methyl-2,3-dihydro-1H-pyrido[2,3-b][1,4]oxazin-7-yl)-N-{1-[2-(3-methyloxetan-3-yl)-2-azaspiro[3.3]heptan-6-yl]-1H-pyrazol-4-yl}quinazolin-2-amine]
0.71 | Cc1c(-c2ccc3cnc(Nc4cnn(C)c4)nc3c2)cnc2c1NCCO2 [Example 1-5, 7-(8-methyl-2,3-dihydro-1H-pyrido[2,3-b][1,4]oxazin-7-yl)-N-(1-methyl-1H-pyrazol-4-yl)quinazolin-2-amine]
0.34 | Cc1c(-c2ccc3cnc(Nc4cc5n(n4)CCN(C(C)C)C(=O)C5)nc3c2)cnc2c1NCCO2 [Example 1-7, 2-{[7-(8-methyl-2,3-dihydro-1H-pyrido[2,3-b][1,4]oxazin-7-yl)quinazolin-2-yl]amino}-6-(propan-2-yl)-7,8-dihydro-4H-pyrazolo[1,5-d][1,4]diazepin-5(6H)-one]
0.42 | CCC(=O)N1CC(n2cc(Nc3ncc4c(N)c(F)c(-c5cnc6c(c5C)NCCO6)cc4n3)cn2)C1 [Example 2-1, 1-[3-(4-{[5-amino-6-fluoro-7-(8-methyl-2,3-dihydro-1H-pyrido[2,3-b][1,4]oxazin-7-yl)quinazolin-2-yl]amino}-1H-pyrazol-1-yl)azetidin-1-yl]propan-1-one]
0.12 | Cc1c(-c2cc3nc(Nc4cnn(C5CCN(C6(C)COC6)CC5)c4)ncc3c(N)c2F)cnc2c1NCCO2 [Example 2-3, 6-fluoro-7-(8-methyl-2,3-dihydro-1H-pyrido[2,3-b][1,4]oxazin-7-yl)-N~2~-{1-[1-(3-methyloxetan-3-yl)piperidin-4-yl]-1H-pyrazol-4-yl}quinazoline-2,5-diamine]
0.14 | Cc1c(-c2cc3nc(Nc4cnn(CC5CC5)c4)ncc3c(N)c2F)cnc2c1NCCO2 [Example 2-6, N~2~-[1-(cyclopropylmethyl)-1H-pyrazol-4-yl]-6-fluoro-7-(8-methyl-2,3-dihydro-1H-pyrido[2,3-b][1,4]oxazin-7-yl)quinazoline-2,5-diamine]
0.26 | Cc1c(-c2cc3nc(Nc4cnn(CC(F)(F)F)c4)ncc3c(N)c2F)cnc2c1NCCO2 [Example 2-7, 6-fluoro-7-(8-methyl-2,3-dihydro-1H-pyrido[2,3-b][1,4]oxazin-7-yl)-N~2~-[1-(2,2,2-trifluoroethyl)-1H-pyrazol-4-yl]quinazoline-2,5-diamine]
0.14 | Cc1c(-c2cc3nc(Nc4cnn(C5CC5)c4)ncc3c(N)c2F)cnc2c1NCCO2 [Example 2-9, N~2~-(1-cyclopropyl-1H-pyrazol-4-yl)-6-fluoro-7-(8-methyl-2,3-dihydro-1H-pyrido[2,3-b][1,4]oxazin-7-yl)quinazoline-2,5-diamine]
0.071 | Cc1c(-c2cc3nc(Nc4cnn(C5CCNCC5)c4)ncc3c(N)c2F)cnc2c1NCCO2 [Example 2-11, 6-fluoro-7-(8-methyl-2,3-dihydro-1H-pyrido[2,3-b][1,4]oxazin-7-yl)-N~2~-[1-(piperidin-4-yl)-1H-pyrazol-4-yl]quinazoline-2,5-diamine]
0.77 | Cc1c(-c2cc3nc(Nc4cnn(CC(C)C)c4)ncc3c(N)c2F)cnc2c1NCCO2 [Example 2-13, 6-fluoro-7-(8-methyl-2,3-dihydro-1H-pyrido[2,3-b][1,4]oxazin-7-yl)-N~2~-[1-(2-methylpropyl)-1H-pyrazol-4-yl]quinazoline-2,5-diamine]
0.22 | COC(=O)C12CC(n3cc(Nc4ncc5c(N)c(F)c(-c6cnc7c(c6C)NCCO7)cc5n4)cn3)(C1)C2 [Example 2-15, methyl 3-(4-{[5-amino-6-fluoro-7-(8-methyl-2,3-dihydro-1H-pyrido[2,3-b][1,4]oxazin-7-yl)quinazolin-2-yl]amino}-1H-pyrazol-1-yl)bicyclo[1.1.1]pentane-1-carboxylate]
0.51 | CCn1ncc(Nc2ncc3c(N)c(F)c(-c4cnc5c(c4C)NCCO5)cc3n2)c1C [Example 2-16, N~2~-(1-ethyl-5-methyl-1H-pyrazol-4-yl)-6-fluoro-7-(8-methyl-2,3-dihydro-1H-pyrido[2,3-b][1,4]oxazin-7-yl)quinazoline-2,5-diamine]
